# Test results: patent US20260008801A1, “BIO-BASED SURFACTANTS DERIVED FROM CARBOHYDRATES” (COÖPERATIE KONINKLIJKE COSUN U.A., priority 2022, published 2026)
# Test: Foaming abilities, 1% compound solutions shaken by hand
# Type: physicochemical
# Parameters: key to FOAM: −: no foam formation; +: low foam formation; ++: moderate foam formation; +++: strong foam formation
# Details: Table E2
# Procedure: Foaming abilities were evaluated at room temperature by shaking 1% compound solutions (2 ml) of pH 3, 7, and 12 by hand for 10 s. The pH of each solution was assessed with a pH meter at room temperature. […] The foam heights at the initial time were compared to one another after which the foaming abilities were classified according to no foam formation (−), low foam formation (+), moderate foam formation (++), and strong foam formation (+++).
row,FOAM,SMILES
1,++,CCCCCCCCCCNC(=O)[C@H](O)[C@@H](O)[C@@H](O)[C@H](O)C(=O)O [Compound 12]
2,−,CCCCCCCCCCCCNC(=O)[C@H](O)[C@@H](O)[C@@H](O)[C@H](O)C(=O)O [Compound 13]

# Same assay, conditions: Table E4; pH not given
row,FOAM,SMILES
1,−,"CCCCNC[C@H](O)[C@@H](O)[C@@H](O)CO [Compound 26, N-butyl-L-arabinamine, reference compound]"
2,−,"CCCCCCNC[C@H](O)[C@@H](O)[C@@H](O)CO [Compound 27, N-hexyl-L-arabinamine, reference compound]"
3,−,"CCCCCCCCNC[C@H](O)[C@@H](O)[C@@H](O)CO [Compound 28, N-octyl-L-arabinamine, reference compound]"
4,−,O=C(O)CCCCCCCCCCNC[C@H](O)[C@@H](O)[C@@H](O)CO [Compound 29]

# Same assay, conditions: Table E5; pH not given
row,FOAM,SMILES
1,−,"CCCCCCCCNC[C@H](O)[C@@H](O)[C@@H](O)[C@H](O)C(=O)O [Compound 33, N-octyl-D-galacturonic acid amine, reference compound]"
2,−,"CCCCCCCCCCCCNC[C@H](O)[C@@H](O)[C@@H](O)[C@H](O)C(=O)O [Compound 34, N-dodecyl-D-galacturonic acid amine, reference compound]"
3,−,"CCCCCCCC(C)NC[C@H](O)[C@@H](O)[C@@H](O)[C@H](O)C(=O)O (stereo partly drawn) [Compound 35, N-(1-methyloctyl)-D-galacturonic acid amine]"

# Test: Surface tension measurements, Wilhelmy plate (surface tension, CMC)
# Type: physicochemical
# Details: not given
# Procedure: Surface tension measurements were performed with a Biolin Scientific Sigma701 automatic tension meter equipped with a Wilhelmy plate made of platinum (±0.5 mN/m). […] The number of experimental points is related to the compound's/surfactant's solubility and available quantity. All compound/surfactant solutions were allowed to stand 12 h before being measured. The platinum plate was thoroughly cleaned with demi water and flame-dried before each measurement. The CMC of each compound/surfactant was determined at the minimum of a breakpoint of a conventional plot of surface tension versus compound/surfactant concentration. DCMC was obtained by acquiring the surface tension at the CMC. The pC20 value was determined by taking the minus log of the concentration compound/surfactant at a surface tension of 52 mN/m.
row,concentration at which the surface tension is reached [%],SMILES
1,0.02,"CCCCCCCCCCCCOS(=O)(=O)[O-].[Na+] [SLS, reference compound]"

# Same assay, conditions: Table E4
row,CMC (%),SMILES
1,2,"CCCCNC[C@H](O)[C@@H](O)[C@@H](O)CO [Compound 26, N-butyl-L-arabinamine, reference compound]"
2,0.5,"CCCCCCNC[C@H](O)[C@@H](O)[C@@H](O)CO [Compound 27, N-hexyl-L-arabinamine, reference compound]"
3,1,O=C(O)CCCCCCCCCCNC[C@H](O)[C@@H](O)[C@@H](O)CO [Compound 29]

# Same assay, conditions: Table E4; room temperature, pH 7
row,SURFACE TENSION [mN/m],SMILES
1,45.8,"CCCCNC[C@H](O)[C@@H](O)[C@@H](O)CO [Compound 26, N-butyl-L-arabinamine, reference compound]"
2,30.3,"CCCCCCNC[C@H](O)[C@@H](O)[C@@H](O)CO [Compound 27, N-hexyl-L-arabinamine, reference compound]"
3,56.1,O=C(O)CCCCCCCCCCNC[C@H](O)[C@@H](O)[C@@H](O)CO [Compound 29]

# Same assay, conditions: Table E5
row,CMC (%),SMILES
1,1,"CCCCCCCCNC[C@H](O)[C@@H](O)[C@@H](O)[C@H](O)C(=O)O [Compound 33, N-octyl-D-galacturonic acid amine, reference compound]"
2,0.1,"CCCCCCCCCCCCNC[C@H](O)[C@@H](O)[C@@H](O)[C@H](O)C(=O)O [Compound 34, N-dodecyl-D-galacturonic acid amine, reference compound]"

# Same assay, conditions: Table E5; room temperature, pH 7
row,SURFACE TENSION [mN/m],SMILES
1,45.1,"CCCCCCCCNC[C@H](O)[C@@H](O)[C@@H](O)[C@H](O)C(=O)O [Compound 33, N-octyl-D-galacturonic acid amine, reference compound]"
2,30.7,"CCCCCCCCCCCCNC[C@H](O)[C@@H](O)[C@@H](O)[C@H](O)C(=O)O [Compound 34, N-dodecyl-D-galacturonic acid amine, reference compound]"

# Test: Solubility in water (excess of compound in 4 ml demi water)
# Type: physicochemical
# Details: not given
# Procedure: Solubility is preferably solubility in aqueous solution, more preferably solubility in water, most preferably solubility in demineralised water. A skilled person knows how to assess such solubility.
# Solubility in water was determined by preparing mixtures of an excess of compound dispersed in 4 ml demi water using a vortex at maximum speed for 1 min. […] 1 ml of the mixture was concentrated in vacuo to yield a solid. The mass of the solid was determined in mg to calculate the solubility in percentage by dividing by ten.
"solubility in water, in words",solubility in H2O [%],SMILES
relatively low,,CCCCCCCCCCCCNC(=O)[C@H](O)[C@@H](O)[C@@H](O)[C@H](O)C(=O)O [Compound 13]
,0,"CCCCCCCCCCCCN(C)C[C@H](O)[C@@H](O)[C@H](O)[C@H](O)CO [Compound 50, 1-(N-methyl-N-dodecyl)-D-glucosamine]"

# Second part, the compound before the results:
SMILES,"solubility in water, in words",solubility in H2O [%]
CCCCCCCCCCNC(=O)[C@H](O)[C@@H](O)[C@@H](O)[C@H](O)C(=O)O [Compound 12],relatively low,
"CCCCCCCCNC[C@H](O)[C@@H](O)[C@@H](O)[C@H](O)C(=O)O [Compound 33, N-octyl-D-galacturonic acid amine, reference compound]",,1

# Same assay, conditions: Table E2, galactaric acid amides
row,SOLUBILITY (H2O) [%],SMILES
1,<1,CCCCCCCCCCNC(=O)[C@H](O)[C@@H](O)[C@@H](O)[C@H](O)C(=O)O [Compound 12]

# Same assay, conditions: Table E4
row,SOLUBILITY (H2O) [%],SMILES
1,6.67,"CCCCNC[C@H](O)[C@@H](O)[C@@H](O)CO [Compound 26, N-butyl-L-arabinamine, reference compound]"
2,0.75,"CCCCCCNC[C@H](O)[C@@H](O)[C@@H](O)CO [Compound 27, N-hexyl-L-arabinamine, reference compound]"
3,1,O=C(O)CCCCCCCCCCNC[C@H](O)[C@@H](O)[C@@H](O)CO [Compound 29]

# Same assay, conditions: Table E5
row,SOLUBILITY (H2O) [%],SMILES
1,1,"CCCCCCCCNC[C@H](O)[C@@H](O)[C@@H](O)[C@H](O)C(=O)O [Compound 33, N-octyl-D-galacturonic acid amine, reference compound]"
2,0.3,"CCCCCCCCCCCCNC[C@H](O)[C@@H](O)[C@@H](O)[C@H](O)C(=O)O [Compound 34, N-dodecyl-D-galacturonic acid amine, reference compound]"
3,0.9,"CCCCCCCC(C)NC[C@H](O)[C@@H](O)[C@@H](O)[C@H](O)C(=O)O (stereo partly drawn) [Compound 35, N-(1-methyloctyl)-D-galacturonic acid amine]"

# Same assay, conditions: Table E5.2; water
row,Solubility [%],SMILES
1,0.75,"CCCCCCNC[C@H](O)[C@@H](O)[C@@H](O)CO [Compound 27, N-hexyl-L-arabinamine, reference compound]"
2,1,"CCCCCCCCNC[C@H](O)[C@@H](O)[C@@H](O)[C@H](O)C(=O)O [Compound 33, N-octyl-D-galacturonic acid amine, reference compound]"
3,0.55,"CCCCCCCCCCNC[C@H](O)[C@@H](O)[C@@H](O)[C@H](O)C(=O)O [Compound 33b, N-decyl-D-galacturonic acid amine]"
4,0.3,"CCCCCCCCCCCCNC[C@H](O)[C@@H](O)[C@@H](O)[C@H](O)C(=O)O [Compound 34, N-dodecyl-D-galacturonic acid amine, reference compound]"
